From US20020155172A1, “Methods and compounds for decreasing cell toxicity or death” (priority 2000, published 2002)

Tested on: semi-purified Q79 oligomers from HeLa cells expressing transfected Q79-GFP
Experiment: Disassembly of semi-purified Q79 oligomers
Type: biochemical
Details: 25 μM (FIG. 6C); fluorescence microscopy
Experimental: FIG. 6C is a set of scanned images of the disruption of pre-formed Q79-GFP oligomers by Congo red, minocycline, or rolitetracycline. Lysates from Q79-GFP expressing cells were treated with 25 μM of the indicated compound, and visualized by fluorescence microscopy.
To determine if binding to polyglutamine is sufficient to inhibit the aggregate formation, we compared the ability of minocycline, rolitetracycline, iota carrageenan, dextran, chrysamine G, and Congo red to bind to 81-repeat polyglutamine polypeptide by the chemical absorption assay described above (FIG. 6B). […] To examine the relationship of compound binding and its ability to dissolve expanded polyglutamine aggregates, we tested their effects on semi-purified Q79 oligomers from HeLa cells expressing transfected Q79-GFP, viewed using a microscope.

Nc1c(/N=N/c2ccc(-c3ccc(/N=N/c4cc(S(=O)(=O)O)c5ccccc5c4N)cc3)cc2)cc(S(=O)(=O)O)c2ccccc12 [Congo red, diphenyldiazo-bis-alpha-napthylaminesulfonate]
disassembly of pre-formed poly-Q oligomers: caused the disassembly of pre-formed poly-Q oligomers
